Key:
RS4;11 cells [1] = assay: RS4;11 cell viability assay; assay type: cell-based; details: 10% human serum, 48 hours, CellTiter Glo
Experimental: Cell cytotoxicity EC50 values were assessed using CellTiter Glo (Promega) according to the manufacturer's recommendations. The EC50 values were determined as a percentage of viable cells following treatment compared to the untreated control cells.

GST-Bcl-2 = GST-Bcl-2 (Homo sapiens (Human), UniProt P10415); assay: Time Resolved-Fluorescence Resonance Energy Transfer (TR-FRET) Bcl-2 binding assay; details: GST-Bcl-2 1 nM, F-Bak peptide probe 100 nM, Tb-anti-GST 1 nM; 3 hours at room temperature; < means below limit of detection
RS4;11 cells [2] = details: Blood, 2008, Vol. 111, 2300-2309; cited from earlier work
[3] = stability of coupling product during workup and chromatography, monitored by HPLC/MS; assay type: physicochemical; details: peak disappeared during workup and chromatography
Experimental: Specifically, this was discovered by the inventors in the following compound preparation. The intermediate structure F, that directly precedes the final product of the unstable compound, was prepared according to the route below. All intermediates A-F were stable and isolable using techniques known to those skilled in the art.
Intermediate F, shown in the scheme above, was reacted with intermediate G using standard coupling conditions that are known to those skilled in the art. The reaction mixture was analyzed via HPLC/MS to monitor the formation of a peak corresponding to the compound H. While this peak formed within hours of initiating the reaction below, the peak progressively disappeared during workup and chromatography, until it no longer was present. The lack of stability of the putative compound originates from the position of the nitrogen within the fused ring-system described above. This position, which is adjacent to the oxygen-bearing carbon in the 5-substituted-1H-pyrrolo[2,3-c]pyridine ring system shown below and described above, makes the compound H unstable.

GST-Bcl-2, sequence (P10415 whole entry): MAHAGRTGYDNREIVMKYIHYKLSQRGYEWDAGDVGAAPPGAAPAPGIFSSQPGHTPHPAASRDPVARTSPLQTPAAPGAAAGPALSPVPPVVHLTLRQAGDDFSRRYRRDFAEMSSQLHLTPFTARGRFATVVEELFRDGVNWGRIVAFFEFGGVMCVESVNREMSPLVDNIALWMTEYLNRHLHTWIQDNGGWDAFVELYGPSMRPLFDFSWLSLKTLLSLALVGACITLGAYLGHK

stability [3] | Compound | EC50 (RS4;11 cells [1]) [nM] | Ki (GST-Bcl-2) [nM] | sensitivity of RS4; 11 cells to the inhibitor (RS4;11 cells [2])
– | 4-(4-{[2-(4-chlorophenyl)-4,4-dimethylcyclohex-1-en-1-yl]methyl}piperazin-1-yl)-N-({3-(pentafluoro-lambda-6-sulfanyl)-4-[(tetrahydro-2H-pyran-4-ylmethyl)amino]phenyl}sulfonyl)-2-(1H-pyrrolo[2,3-b]pyridin-5-yloxy)benzamide [Example 233] | > 1000 | 1.65 | –
– | 4-(4-{[2-(4-chlorophenyl)-4,4-dimethylcyclohex-1-en-1-yl]methyl}piperazin-1-yl)-N-[(4-{[(3R)-1-(2-fluoroethyl)pyrrolidin-3-yl]amino}-3-nitrophenyl)sulfonyl]-2-(1H-pyrrolo[2,b]pyridin-5-yloxy)benzamide [Example 183] | 17.5 | < 0.01 | –
– | 4-(4-{[2-(4-chlorophenyl)-4,4-dimethylcyclohex-1-en-1-yl]methyl}piperazin-1-yl)-N-{[4-({[(E)-4-hydroxy-1-adamantyl]methyl}amino)-3-nitrophenyl]sulfonyl}-2-(1H-pyrrolo[2,3-b]pyridin-5-yloxy)benzamide [Example 199] | 5.06 | < 0.01 | –
– | 4-(4-{[2-(4-chlorophenyl)-4,4-dimethylcyclohex-1-en-1-yl]methyl}piperazin-1-yl)-N-{[4-({[(Z)-4-hydroxy-1-adamantyl]methyl}amino)-3-nitrophenyl]sulfonyl}-2-(1H-pyrrolo[2,3-b]pyridin-5-yloxy)benzamide [Example 200] | 11 | < 0.01 | –
– | 4-(4-{[2-(4-chlorophenyl)-4,4-dimethylcyclohex-1-en-1-yl]methyl}piperazin-1-yl)-N-{[4-({[cis-3-morpholin-4-ylcyclopentyl]methyl}amino)-3-nitrophenyl]sulfonyl}-2-(1H-pyrrolo[2,3-b]pyridin-5-yloxy)benzamide [Example 188] | 16.4 | – | –
– | CN(C)CC[C@H](CSc1ccccc1)Nc1ccc(S(=O)(=O)NC(=O)c2ccc(N3CCN(Cc4ccccc4-c4ccc(Cl)cc4)CC3)cc2)cc1[N+](=O)[O-] [ABT-737, N-(4-(4-((4′-chloro(1,1′-biphenyl)-2-yl)methyl)piperazin-1-yl)benzoyl)-4-(((1R)-3-(dimethylamino)-1-((phenylsulfanyl)methyl)propyl)amino)-3-nitrobenzenesulfonamide] | – | – | sensitive
– | CC1(C)CCC(CN2CCN(c3ccc(C(=O)NS(=O)(=O)c4ccc(OCC5COCCN5C5CCOCC5)c([N+](=O)[O-])c4)c(Oc4cnc5[nH]ccc5c4)c3)CC2)=C(c2ccc(Cl)cc2)C1 (stereo not drawn) [Example 104, 4-(4-{[2-(4-chlorophenyl)-4,4-dimethylcyclohex-1-en-1-yl]methyl}piperazin-1-yl)-N({3-nitro-4-[(4-tetrahydro-2H-pyran-4-ylmorpholin-3-yl)methoxy]phenyl}sulfonyl)-2-(1H-pyrrolo[2,3-b]pyridin-5-yloxy)benzamide] | 71.2 | 0.016 | –
– | CC1(C)CCC(CN2CCN(c3ccc(C(=O)NS(=O)(=O)c4ccc(NC[C@H]5CC[C@@](C)(O)CC5)c([N+](=O)[O-])c4)c(Oc4cnc5[nH]ccc5c4)c3)CC2)=C(c2ccc(Cl)cc2)C1 [Example 337, 4-(4-{[2-(4-chlorophenyl)-4,4-dimethylcyclohex-1-en-1-yl]methyl}piperazin-1-yl)-N-[(4-{[(trans-4-hydroxy-4-methylcyclohexyl)methyl]amino}-3-nitrophenyl)sulfonyl]-2-(1H-pyrrolo[2,3-b]pyridin-5-yloxy)benzamide] | 1.76 | – | –
– | C[C@]1(O)CC[C@@H](COc2ncc(S(=O)(=O)NC(=O)c3ccc(N4CCN(CC5=C(c6ccc(Cl)cc6)CC6(CC5)CC6)CC4)cc3Oc3cnc4[nH]ccc4c3)cc2Cl)CC1 [Example 341, N-({5-chloro-6-[(trans-4-hydroxy-4-methylcyclohexyl)methoxy]pyridin-3-yl}sulfonyl)-4-(4-{[5-(4-chlorophenyl)spiro[2.5]oct-5-en-6-yl]methyl}piperazin-1-yl)-2-(1H-pyrrolo[2,3-b]pyridin-5-yloxy)benzamide] | 31.7 | < 0.01 | –
– | CC1(C)CCC(CN2CCN(c3ccc(C(=O)NS(=O)(=O)c4cnc(OC[C@]5(F)CC[C@@H](O)CC5)c(Cl)c4)c(Oc4cnc5[nH]ccc5c4)c3)CC2)=C(c2ccc(Cl)cc2)C1 [Example 350, N-({5-chloro-6-[(cis-1-fluoro-4-hydroxycyclohexyl)methoxy]pyridin-3-yl}sulfonyl)-4-(4-{[2-(4-chlorophenyl)-4,4-dimethylcyclohex-1-en-1-yl]methyl}piperazin-1-yl)-2-(1H-pyrrolo[2,3-b]pyridin-5-yloxy)benzamide] | – | < 0.01 | –
– | CCC1(O)CCC(CNc2ccc(S(=O)(=O)NC(=O)c3ccc(N4CCN(CC5=C(c6ccc(Cl)cc6)CC(C)(C)CC5)CC4)cc3Oc3cnc4[nH]ccc4c3)cc2[N+](=O)[O-])CC1 (stereo not drawn) [Example 358, 4-(4-{[2-(4-chlorophenyl)-4,4-dimethylcyclohex-1-en-1-yl]methyl}piperazin-1-yl)-N-[(4-{[(trans-4-ethyl-4-hydroxycyclohexyl)methyl]amino}-3-nitrophenyl)sulfonyl]-2-(1H-pyrrolo[2,3-b]pyridin-5-yloxy)benzamide] | – | < 0.01 | –
– | CC[C@]1(O)CC[C@H](CNc2ccc(S(=O)(=O)NC(=O)c3ccc(N4CCN(CC5=C(c6ccc(Cl)cc6)CC(C)(C)CC5)CC4)cc3Oc3cnc4[nH]ccc4c3)cc2[N+](=O)[O-])CC1 [Example 359, 4-(4-{[2-(4-chlorophenyl)-4,4-dimethylcyclohex-1-en-1-yl]methyl}piperazin-1-yl)-N-[(4-{[(cis-4-ethyl-4-hydroxycyclohexyl)methyl]amino}-3-nitrophenyl)sulfonyl]-2-(1H-pyrrolo[2,3-b]pyridin-5-yloxy)benzamide] | – | < 0.01 | –
– | CC1(C)CCC(CN2CCN(c3ccc(C(=O)NS(=O)(=O)c4ccc(OC[C@H]5CC[C@@](C)(O)CC5)c(Cl)c4)c(Oc4cnc5[nH]ccc5c4)c3)CC2)=C(c2ccc(Cl)cc2)C1 [Example 362, N-({3-chloro-4-[(trans-4-hydroxy-4-methylcyclohexyl)methoxy]phenyl}sulfonyl)-4-(4-{[2-(4-chlorophenyl)-4,4-dimethylcyclohex-1-en-1-yl]methyl}piperazin-1-yl)-2-(1H-pyrrolo[2,3-b]pyridin-5-yloxy)benzamide] | 31.7 | 0.016 | –
– | CC1(C)CCC(CN2CCN(c3ccc(C(=O)NS(=O)(=O)c4cnc(NC[C@H]5CC[C@@](C)(O)CC5)c([N+](=O)[O-])c4)c(Oc4cnc5[nH]ccc5c4)c3)CC2)=C(c2ccc(Cl)cc2)C1 [Example 371, 4-(4-{[2-(4-chlorophenyl)-4,4-dimethylcyclohex-1-en-1-yl]methyl}piperazin-1-yl)-N-[(6-{[(trans-4-hydroxy-4-methylcyclohexyl)methyl]amino}-5-nitropyridin-3-yl)sulfonyl]-2-(1H-pyrrolo[2,3-b]pyridin-5-yloxy)benzamide] | – | < 0.001 | –
– | CC1(C)CCC(CN2CCN(c3ccc(C(=O)NS(=O)(=O)c4cnc(NC[C@H]5CC[C@](C)(O)CC5)c([N+](=O)[O-])c4)c(Oc4cnc5[nH]ccc5c4)c3)CC2)=C(c2ccc(Cl)cc2)C1 [Example 376, 4-(4-{[2-(4-chlorophenyl)-4,4-dimethylcyclohex-1-en-1-yl]methyl}piperazin-1-yl)-N-[(6-{[(cis-4-hydroxy-4-methylcyclohexyl)methyl]amino}-5-nitropyridin-3-yl)sulfonyl]-2-(1H-pyrrolo[2,3-b]pyridin-5-yloxy)benzamide] | – | < 0.001 | –
– | COC1(C)CCC(c2ccc(Cl)cc2)=C(CN2CCN(c3ccc(C(=O)NS(=O)(=O)c4ccc(NC[C@H]5CC[C@@](C)(O)CC5)c([N+](=O)[O-])c4)c(Oc4cnc5[nH]ccc5c4)c3)CC2)C1 (stereo partly drawn) [Example 377, 4-(4-{[2-(4-chlorophenyl)-5-methoxy-5-methylcyclohex-1-en-1-yl]methyl}piperazin-1-yl)-N-[(4-{[(trans-4-hydroxy-4-methylcyclohexyl)methyl]amino}-3-nitrophenyl)sulfonyl]-2-(1H-pyrrolo[2,3-b]pyridin-5-yloxy)benzamide] | – | < 0.001 | –
unstable | CC1(C)CCC(CN2CCN(c3ccc(C(=O)NS(=O)(=O)c4ccc(NCC5CCOCC5)c([N+](=O)[O-])c4)c(Oc4cc5cc[nH]c5cn4)c3)CC2)=C(c2ccc(Cl)cc2)C1 [compound H] | – | – | –
